Experimental data taken from patent US8008280B2, “Betulinol derivatives as anti-HIV agents” (priority 2004, dated 2011).
Where two headings read alike, the source gives them in different places.

Tests used:
another HIV-1 isolate = assay: Effect on 174XCEM cells chronically infected with another HIV-1 isolate; assay type: cell-based; settings: chronically infected 174XCEM cells; betulin diacetate single dose 1 μg/ml
Method: Agents were also evaluated for an effect on 174XCEM cells chronically infected with another HIV-1 isolate.

[1] = In vivo tolerability in mice with prostate cancer cell xenografts; settings: final concentration of 22% ethanol and 2×10−3 mol per liter of betulonic acid
[2] = Solubility in DMSO diluted with culture medium (GC, standard solubility curve); assay type: physicochemical
Method: The residue was dissolved in chloroform analyzed on GC.
Ethyl ether was then evaporated.

[3] = Solubilization in PBS containing human γ-globulin, human albumin and ethanol; assay type: physicochemical; settings: 1 × 10^−3 mol/L
AZT-resistant strain = assay: Anti-HIV activity against AZT-resistant patient isolates in MT-2 cells; assay type: cell-based
Excerpt: These isolates were used to infect MT-2 cells in vitro.

[4] = Solubility of betulonic acid in human serum; assay type: physicochemical; settings: 1.34 mg in 31 μL neat ethanol diluted with 700 μL human serum; 4.2% final ethanol
cells = settings: cited from earlier work
[5] = tested on: carcinoma cell line CO-115 of the large intestine; settings: carcinoma cell line CO-115 (Ukkonen et al.); cited from earlier work
HIV-1 IIIB isolate = assay: HIV-1 inhibitory effect, p24 antigen capture ELISA, acutely infected 174XCEM cells; assay type: cell-based; settings: 1 μg/ml (in DMSO); 4 days culture
174XCEM = assay: Effect on cell viability, trypan blue dye exclusion; settings: trypan blue dye exclusion at four days and seven days
Method: Human T-B hybridoma cell line 174XCEM was exposed to a low multiplicity of infection (“MOI”) (MOI=1.0) of stock HIV-1 IIIB isolate for 2 hours at 37° C., washed ×3 with phosphate buffered saline (“PBS”), then plated at 250,000 cells/well in the presence of various agents, shown in Table 10. Dimethyl sulfoxide (“DMSO”) buffer was used as a […] control. A commercially available synthetic peptide, thrombospondin peptide (“TSP”), known as having HIV-1 inhibitory activity, was used as an “inhibitory activity” control. Two HIV isolates were used, a patient isolate (“child HIV”), and the standard CXCR4 co-receptor utilizing isolate IIIB.
The cell samples were assessed by trypan blue dye exclusion at four days and seven days.

[6] = 1.0 mg in culture medium containing 20% DMSO

## C=C(C)C1CCC2(CO)CC[C@]3(C)[C@H](CC[C@@H]4[C@@]5(C)CCC(O)C(C)(C)[C@@H]5CC[C@]43C)C12 (stereo partly drawn) [betulinol, lup-20(29)-ene-3β, 28-diol]
Another HIV-1 isolate
  inhibition (release of virus from chronically infected cells): minimal effect

## C=C(C)C1CCC2(C(=O)O)CC[C@]3(C)[C@H](CC[C@@H]4[C@@]5(C)CCC(=O)C(C)(C)[C@@H]5CC[C@]43C)C12 (stereo partly shown) [betulonic acid, Betulonic Acid]
[1]
  tolerability: well tolerated
[2]
  Con. in culture medium containing 20% DMSO: 0.001 mol/L
[2]; 3 mg in culture medium containing 10% FBS with 1% DMSO, supernatant after centrifugation
  amount of betulonic acid dissolved: 0.4 mg
[3]; 1.0 mg, ethanol 220 μL, γ-globulin 1.48 mL, albumin 0.49 mL
  Observation: Cloudy
[3]; 1.3 mg, ethanol 280 μL, γ-globulin (27 mg/mL in PBS) 2.50 mL, albumin (42 mg/mL in PBS) 0 mL
  Observation: Suspension
AZT-resistant strain; day 5 (FIG. 14)
  inhibition in the HIV infection, AZT-resistant strain: 44%
AZT-resistant strain; day 8 (FIG. 15)
  inhibition in the HIV infection, AZT-resistant strain: increased further
[4]
  Observation: Clear Solution
cells
  cytotoxicity, interfering with the proliferation of cells: cytotoxic

## Cc1cn([C@H]2C[C@H](N=[N+]=[N-])[C@@H](CO)O2)c(=O)[nH]c1=O [AZT, 3′-azido-3′-deoxythymidine, reference compound]
AZT-resistant strain; day 5 (FIG. 14)
  inhibition in the HIV infection, AZT-resistant strain: ineffective

## C=C(C)[C@@H]1CC[C@]2(C(=O)O)CC[C@]3(C)[C@H](CC[C@@H]4[C@@]5(C)CC[C@H](O)C(C)(C)[C@@H]5CC[C@]43C)[C@@H]12 [betulinic acid, Betulinic Acid]
[5]
  cytotoxic activity, LD 50: 0.375 mg/mL

## C=C(C)[C@@H]1CC[C@]2(COC(C)=O)CC[C@]3(C)[C@H](CC[C@@H]4[C@@]5(C)CC[C@H](OC(C)=O)C(C)(C)[C@@H]5CC[C@]43C)[C@@H]12 [betulin diacetate, Betulin Diacetate]
Another HIV-1 isolate
  inhibition (release of virus from chronically infected cells): 20%

## C=C(C)C1CCC2(C(=O)NCCCCC(NC(=O)OC(C)(C)C)C(=O)O)CC[C@]3(C)[C@H](CC[C@@H]4[C@@]5(C)CCC(=O)C(C)(C)[C@@H]5CC[C@]43C)C12 (stereo partly shown) [Boc-Monomer]
[1]
  tolerability: well tolerated
[2]
  Con. in culture medium containing 20% DMSO: 0.001 mol/L

## C=C(C)[C@@H]1CC[C@]2(C=O)CC[C@]3(C)[C@H](CC[C@@H]4[C@@]5(C)CCC(=O)C(C)(C)[C@@H]5CC[C@]43C)[C@@H]12 [betulone aldehyde, Betulon Aldehyde]
Another HIV-1 isolate
  inhibition (release of virus from chronically infected cells): minimal effect

## C=C(C)[C@@H]1CC[C@]2(COC(C)=O)CC[C@]3(C)[C@H](CC[C@@H]4[C@@]5(C)CC[C@H](O)C(C)(C)[C@@H]5CC[C@]43C)[C@@H]12 [28-acetoxy betulin, 28-Acetoxy Betulin]
HIV-1 IIIB isolate
  anti-HIV-1 activity (HIV-1 gag (p24) antigen, OD units, FIG. 6): anti-HIV-1 activity superior to that previously disclosed in the art for other betulinol derivatives
174XCEM
  effect on total cell number or cell viability: no effect on total cell number or cell viability

## C=C(C)C1CCC2(COC)CCC3(C)C(CCC4C5(C)CCC(OC)C(C)(C)C5CCC43C)C12 (stereo not shown) [betulin dimethyl ether, Betulin Dimethyl ether]
HIV-1 IIIB isolate
  anti-HIV-1 activity (HIV-1 gag (p24) antigen, OD units, FIG. 6): anti-HIV-1 activity superior to that previously disclosed in the art for other betulinol derivatives
174XCEM
  effect on total cell number or cell viability: no effect on total cell number or cell viability

## C=C(C)C1CCC2(C(=O)NCCCCC(NC(=O)C(CCCCNC(=O)C34CCC(C(=C)C)C3[C@@H]3CC[C@H]5[C@]6(C)CCC(=O)C(C)(C)[C@H]6CC[C@]5(C)[C@@]3(C)CC4)NC(=O)OC(C)(C)C)C(=O)O)CC[C@]3(C)[C@H](CC[C@@H]4[C@@]5(C)CCC(=O)C(C)(C)[C@@H]5CC[C@]43C)C12 (stereo partly shown) [Boc-Dimer]
[2]; [6]
  Concentration of drug (mg/mL): 0.6 mg/mL
  Concentration of drug (mol/L): 0.0005 mol/L
[2]; calculated (nominal) concentration
  Con. in culture medium containing 20% DMSO: 0.0005 mol/L

## C=C(C)[C@@H]1CC[C@]2(CO)CC[C@]3(C)[C@H](CC[C@@H]4[C@@]5(C)CC[C@H](OC(C)=O)C(C)(C)[C@@H]5CC[C@]43C)[C@@H]12 [3-acetoxy betulin, 3-Acetoxy Betulin]
HIV-1 IIIB isolate
  anti-HIV-1 activity (HIV-1 gag (p24) antigen, OD units, FIG. 6): anti-HIV-1 activity superior to that previously disclosed in the art for other betulinol derivatives
174XCEM
  effect on total cell number or cell viability: no effect on total cell number or cell viability
